From article PMC3759959, “Design, Synthesis and Antiviral Activity Studies of Schizonepetin Derivatives” (International Journal of Molecular Sciences, 2013)

Experiments:
HSV-1 virus = test: Anti HSV-1 CPE inhibition assay in Vero cells; details: CPE inhibition
[1] = test system: abdominal capillary permeability; details: cited from earlier work
Vero cells = test: Cytotoxicity by CPE assay in Vero cells; assay type: cell-based; details: cytotoxicity, Vero cells, 72 h, Reed-Muench method
Description: (§1) The cytotoxicity was evaluated by cytopathic effect (CPE) inhibition assay. Vero cells were seeded into 96-well plates. After cells had been incubated for 24 h at 37 °C in 5% CO2, they were exposed to drugs with two-fold serial dilutions. Untreated Vero cells were used as controls. All cultures were incubated again in 5% CO2 at 37 °C for 72 h. The cells were examined microscopically for the cytotoxicity effects. Then TC50 were calculated by the Reed-Muench method.

influenza virus H3N2 = test: Anti-H3N2 CPE inhibition assay in MDCK cells; details: CPE inhibition
MDCK cells = test: Cytotoxicity against MDCK cells by CPE assay; assay type: cell-based
Description: as §1
The procedures for Anti-H3N2 studies and cytotoxicity against MDCK cells in vitro by CPE inhibition assay were similar to Anti HSV-1 studies and cytotoxicity against Vero cells.

H1N1 = details: previous study; cited from earlier work

For CC1=C2CC[C@@H](C)C[C@@]2(O)OC1=O [Schizonepetin], the “antiviral activity against HSV-1 (in words)” value (HSV-1 virus; in vitro) is given as “low antiviral activity”, the IC50 (HSV-1 virus; read-out: IC50, antiviral activity against HSV-1 virus, Vero cells, 30 TCID50, 72 h) is given as > 11.5 µM and the “effect on increase of abdominal capillary permeability by HAc” value [1] is given as “inhibit the increase of abdominal capillary permeability”. For the same compound, the “TC50 (Antiviral activity against HSV-1 virus section)” value (Vero cells) was 834.2 µM, the “antiviral activity against influenza virus H3N2 (in words)” value (influenza virus H3N2; in vitro) was “low antiviral activity” and the IC50 (influenza virus H3N2; read-out: IC50, antiviral activity against H3N2 virus, MDCK cells) was > 39.1 µM. For the same compound, the “TC50 (Antiviral activity against H3N2 virus section)” value (MDCK cells) was 829.4 µM and the “therapeutic effect on the H1N1 infected mice” value (H1N1) was “obviously positive therapeutic effect”.
